Where two headings read alike, the source gives them in different places.
Legend:
Assay in all cases: Test F pre-/postemergence plant response
Assay type in all cases: in vivo
[1] = tested on: waterhemp (common waterhemp, Amaranthus rudis); conditions: Amaranthus tuberculatus, scale 0 to 100, read-out: Plant response rating, Waterhemp
Outline: (§1)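 Formulation: non-phytotoxic solvent mix + surfactant. Preemergence: applied to seeded silt loam. Postemergence: foliar, 1- to 4-leaf plants, 2–18 cm. Greenhouse hold 14–21 days; visual score vs controls, 0 = no effect, 100 = complete control; dash = not tested.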

[2] = tested on: Italian ryegrass (Lolium multiflorum); conditions: Lolium multiflorum, scale 0 to 100, read-out: Plant response rating, Ryegrass, Italian; for pest or weed control at 16 g/ha: 16 g ai/ha; for pest or weed control at 31 g/ha: 31 g ai/ha; for pest or weed control at 125 g/ha: 125 g ai/ha
Outline: as §1

[3] = tested on: barnyardgrass (Echinochloa crus-galli); conditions: Echinochloa crus-galli, scale 0 to 100, read-out: Plant response rating, Barnyardgrass
Outline: as §1

[4] = tested on: surinam grass (Brachiaria decumbens); conditions: Urochloa decumbens, pre-emergence, scale 0 to 100, read-out: Plant response rating, Surinam Grass
Outline: as §1

[5] = tested on: dayflower (Virginia (VA) dayflower, Commelina virginica); conditions: Commelina virginica, scale 0 to 100, read-out: Plant response rating, Dayflower, VA
Outline: as §1

soybean (Glycine max) = conditions: Glycine max, scale 0 to 100, read-out: Plant response rating, Soybean
Outline: as §1

[6] = tested on: field bindweed (Convolvulus arvensis); conditions: Convolvulus arvensis, scale 0 to 100, read-out: Plant response rating, Field Bindweed
Outline: as §1

[7] = tested on: lambsquarters (Chenopodium album); conditions: Chenopodium album, pre-emergence, scale 0 to 100, read-out: Plant response rating, Lambsquarters
Outline: as §1

[8] = tested on: johnsongrass (Sorghum halepense); conditions: Sorghum halepense, pre-emergence, scale 0 to 100, read-out: Plant response rating, Johnsongrass
Outline: as §1

[9] = tested on: ragweed (common ragweed, Ambrosia elatior); conditions: Ambrosia artemisiifolia, pre-emergence, scale 0 to 100, read-out: Plant response rating, Ragweed
Outline: as §1

[10] = tested on: giant foxtail (Setaria faberii); conditions: Setaria faberi, pre-emergence, scale 0 to 100, read-out: Plant response rating, Foxtail, Giant
Outline: as §1

[11] = tested on: large (Lg) crabgrass (Digitaria sanguinalis); conditions: Digitaria sanguinalis, pre-emergence, scale 0 to 100, read-out: Plant response rating, Crabgrass, Large
Outline: as §1

[12] = tested on: wild poinsettia (Euphorbia heterophylla); conditions: Euphorbia heterophylla, scale 0 to 100, read-out: Plant response rating, Poinsettia, Wild
Outline: as §1

[13] = tested on: yellow nutsedge (Cyperus esculentus); conditions: Cyperus, pre-emergence, scale 0 to 100, read-out: Plant response rating, Nutsedge, Yellow
Outline: as §1

kochia (Kochia scoparia) = conditions: Bassia scoparia, scale 0 to 100, read-out: Plant response rating, Kochia; for pest or weed control at 16 g/ha: 16 g ai/ha; for pest or weed control at 31 g/ha: 31 g ai/ha; for pest or weed control at 125 g/ha: 125 g ai/ha
Outline: as §1

[14] = tested on: green foxtail (Setaria viridis); conditions: Setaria viridis, pre-emergence, scale 0 to 100, read-out: Plant response rating, Foxtail, Green
Outline: as §1

[15] = tested on: morningglory (Ipomoea coccinea); conditions: Ipomoea, pre-emergence, scale 0 to 100, read-out: Plant response rating, Morningglory
Outline: as §1

[16] = post-emergence, 8 g ai/ha Postemergence
[17] = post-emergence, 16 g ai/ha Postemergence
[18] = post-emergence, 31 g ai/ha Postemergence
[19] = post-emergence, 62 g ai/ha Postemergence
[20] = post-emergence, 125 g ai/ha Postemergence
[21] = pre-emergence, 8 g ai/ha Preemergence
[22] = pre-emergence, 16 g ai/ha Preemergence
[23] = pre-emergence, 31 g ai/ha Preemergence
[24] = pre-emergence, 125 g ai/ha Preemergence
[25] = post-emergence, 62 g ai/ha, Postemergence
[26] = pre-emergence, 62 g ai/ha Preemergence

FC(F)c1cc(-c2ccccc2Oc2ncc(Cl)cn2)on1 [Compound 53, 5-chloro-2-[2-[3-(difluoromethyl)-5-isoxazolyl]phenoxy]pyrimidine]
pest or weed control at 8 g/ha [1, 16]: 80% | pest or weed control at 16 g/ha [1, 17]: 95% | pest or weed control at 31 g/ha [1, 18]: 98% | pest or weed control at 62 g/ha [1, 19]: 100% | pest or weed control at 125 g/ha [1, 20]: 100% | pest or weed control at 8 g/ha [1, 21]: 0% | pest or weed control at 16 g/ha [1, 22]: 0% | pest or weed control at 31 g/ha [1, 23]: 95% | pest or weed control at 125 g/ha [1, 24]: 100% | pest or weed control at 62 g/ha ([1]; pre-emergence, Preemergence): 100% | pest or weed control at 8 g/ha [2, 16]: 0% | pest or weed control at 16 g/ha ([2]; post-emergence, Postemergence): 0% | pest or weed control at 31 g/ha ([2]; post-emergence, Postemergence): 0% | pest or weed control at 62 g/ha [2, 25]: 5% | pest or weed control at 125 g/ha ([2]; post-emergence, Postemergence): 0% | pest or weed control at 8 g/ha [2, 21]: 0% | pest or weed control at 16 g/ha ([2]; pre-emergence, Preemergence): 0% | pest or weed control at 31 g/ha ([2]; pre-emergence, Preemergence): 0% | pest or weed control at 125 g/ha ([2]; pre-emergence, Preemergence): 0% | pest or weed control at 62 g/ha ([2]; pre-emergence, Preemergence): 0% | pest or weed control at 8 g/ha [3, 16]: 0% | pest or weed control at 16 g/ha [3, 17]: 0% | pest or weed control at 31 g/ha [3, 18]: 0% | pest or weed control at 62 g/ha [3, 19]: 0% | pest or weed control at 125 g/ha [3, 20]: 10% | pest or weed control at 8 g/ha [3, 21]: 0% | pest or weed control at 16 g/ha [3, 22]: 0% | pest or weed control at 31 g/ha [3, 23]: 0% | pest or weed control at 62 g/ha [3, 26]: 20% | pest or weed control at 125 g/ha [3, 24]: 50% | pest or weed control at 8 g/ha ([4]; 8 g ai/ha Preemergence): 0% | pest or weed control at 16 g/ha ([4]; 16 g ai/ha Preemergence): 0% | pest or weed control at 31 g/ha ([4]; 31 g ai/ha Preemergence): 0% | pest or weed control at 125 g/ha ([4]; 125 g ai/ha Preemergence): 0% | pest or weed control at 62 g/ha ([4]; Preemergence): 0% | pest or weed control at 8 g/ha [5, 16]: 30% | pest or weed control at 16 g/ha [5, 17]: 40% | pest or weed control at 31 g/ha [5, 18]: 30% | pest or weed control at 62 g/ha [5, 19]: 50% | pest or weed control at 125 g/ha [5, 20]: 60% | pest or weed control at 8 g/ha [5, 21]: 0% | pest or weed control at 16 g/ha [5, 22]: 0% | pest or weed control at 31 g/ha [5, 23]: 0% | pest or weed control at 62 g/ha [5, 26]: 50% | pest or weed control at 125 g/ha [5, 24]: 95% | plant injury at 8 g/ha (soybean (Glycine max); [16]): 40% | plant injury at 16 g/ha (soybean (Glycine max); [17]): 80% | plant injury at 31 g/ha (soybean (Glycine max); [18]): 95% | plant injury at 62 g/ha (soybean (Glycine max); [19]): 95% | plant injury at 125 g/ha (soybean (Glycine max); [20]): 95% | plant injury at 8 g/ha (soybean (Glycine max); [21]): 0% | plant injury at 16 g/ha (soybean (Glycine max); [22]): 0% | plant injury at 31 g/ha (soybean (Glycine max); [23]): 0% | plant injury at 125 g/ha (soybean (Glycine max); [24]): 35% | plant injury at 62 g/ha (soybean (Glycine max); pre-emergence, Preemergence): 0% | pest or weed control at 8 g/ha [6, 16]: 30% | pest or weed control at 16 g/ha [6, 17]: 55% | pest or weed control at 31 g/ha [6, 18]: 50% | pest or weed control at 62 g/ha [6, 19]: 50% | pest or weed control at 125 g/ha [6, 20]: 60% | pest or weed control at 8 g/ha [6, 21]: 0% | pest or weed control at 16 g/ha [6, 22]: 0% | pest or weed control at 31 g/ha [6, 23]: 0% | pest or weed control at 62 g/ha [6, 26]: 0% | pest or weed control at 125 g/ha [6, 24]: 0% | pest or weed control at 8 g/ha ([7]; 8 g ai/ha Preemergence): 65% | pest or weed control at 16 g/ha ([7]; 16 g ai/ha, Preemergence): 65% | pest or weed control at 31 g/ha ([7]; 31 g ai/ha, Preemergence): 95% | pest or weed control at 125 g/ha ([7]; 125 g ai/ha, Preemergence): 98% | pest or weed control at 62 g/ha ([7]; Preemergence): 95% | pest or weed control at 8 g/ha ([8]; 8 g ai/ha Preemergence): 0% | pest or weed control at 16 g/ha ([8]; 16 g ai/ha Preemergence): 0% | pest or weed control at 31 g/ha ([8]; 31 g ai/ha Preemergence): 0% | pest or weed control at 125 g/ha ([8]; 125 g ai/ha Preemergence): 5% | pest or weed control at 62 g/ha ([8]; Preemergence): 0% | pest or weed control at 8 g/ha ([9]; 8 g ai/ha Preemergence): 0% | pest or weed control at 16 g/ha ([9]; 16 g ai/ha Preemergence): 0% | pest or weed control at 31 g/ha ([9]; 31 g ai/ha Preemergence): 0% | pest or weed control at 125 g/ha ([9]; 125 g ai/ha Preemergence): 40% | pest or weed control at 62 g/ha ([9]; Preemergence): 30% | pest or weed control at 8 g/ha ([10]; 8 g ai/ha Preemergence): 0% | pest or weed control at 16 g/ha ([10]; 16 g ai/ha Preemergence): 0% | pest or weed control at 31 g/ha ([10]; 31 g ai/ha Preemergence): 20% | pest or weed control at 62 g/ha ([10]; 62 g ai/ha Preemergence): 70% | pest or weed control at 125 g/ha ([10]; 125 g ai/ha Preemergence): 95% | pest or weed control at 8 g/ha ([11]; 8 g ai/ha Preemergence): 0% | pest or weed control at 16 g/ha ([11]; 16 g ai/ha Preemergence): 0% | pest or weed control at 31 g/ha ([11]; 31 g ai/ha Preemergence): 15% | pest or weed control at 62 g/ha ([11]; 62 g ai/ha Preemergence): 80% | pest or weed control at 125 g/ha ([11]; 125 g ai/ha Preemergence): 98% | pest or weed control at 8 g/ha [12, 16]: 50% | pest or weed control at 16 g/ha [12, 17]: 50% | pest or weed control at 31 g/ha [12, 18]: 60% | pest or weed control at 62 g/ha [12, 19]: 70% | pest or weed control at 125 g/ha [12, 20]: 70% | pest or weed control at 8 g/ha [12, 21]: 0% | pest or weed control at 16 g/ha [12, 22]: 0% | pest or weed control at 31 g/ha [12, 23]: 0% | pest or weed control at 125 g/ha [12, 24]: 0% | pest or weed control at 62 g/ha ([12]; pre-emergence, Preemergence): 0% | pest or weed control at 8 g/ha ([13]; 8 g ai/ha Preemergence): 0% | pest or weed control at 16 g/ha ([13]; 16 g ai/ha Preemergence): 0% | pest or weed control at 31 g/ha ([13]; 31 g ai/ha Preemergence): 0% | pest or weed control at 125 g/ha ([13]; 125 g ai/ha Preemergence): 20% | pest or weed control at 62 g/ha ([13]; Preemergence): 0% | pest or weed control at 8 g/ha (kochia (Kochia scoparia); [16]): 50% | pest or weed control at 16 g/ha (kochia (Kochia scoparia); post-emergence, Postemergence): 60% | pest or weed control at 31 g/ha (kochia (Kochia scoparia); post-emergence, Postemergence): 80% | pest or weed control at 62 g/ha (kochia (Kochia scoparia); [25]): 95% | pest or weed control at 125 g/ha (kochia (Kochia scoparia); post-emergence, Postemergence): 98% | pest or weed control at 8 g/ha (kochia (Kochia scoparia); [21]): 0% | pest or weed control at 16 g/ha (kochia (Kochia scoparia); pre-emergence, Preemergence): 0% | pest or weed control at 31 g/ha (kochia (Kochia scoparia); pre-emergence, Preemergence): 20% | pest or weed control at 125 g/ha (kochia (Kochia scoparia); pre-emergence, Preemergence): 100% | pest or weed control at 62 g/ha (kochia (Kochia scoparia); pre-emergence, Preemergence): 50% | pest or weed control at 8 g/ha ([14]; 8 g ai/ha Preemergence): 0% | pest or weed control at 16 g/ha ([14]; 16 g ai/ha, Preemergence): 0% | pest or weed control at 31 g/ha ([14]; 31 g ai/ha, Preemergence): 0% | pest or weed control at 125 g/ha ([14]; 125 g ai/ha, Preemergence): 90% | pest or weed control at 62 g/ha ([14]; Preemergence): 20% | pest or weed control at 8 g/ha ([15]; 8 g ai/ha Preemergence): 0% | pest or weed control at 16 g/ha ([15]; 16 g ai/ha Preemergence): 0% | pest or weed control at 31 g/ha ([15]; 31 g ai/ha Preemergence): 0% | pest or weed control at 125 g/ha ([15]; 125 g ai/ha Preemergence): 0% | pest or weed control at 62 g/ha ([15]; Preemergence): 0%

From US10131652B2, “Pyrimidinyloxy benzene derivatives as herbicides” (E. I. DU PONT DE NEMOURS AND COMPANY, priority 2014, dated 2018)
